Reference: US10982100B2, “Slippery liquid-infused porous surfaces and biological applications thereof” (President and Fellows of Harvard College, priority 2011, dated 2021)
Read-outs that look alike come from different tables or passages of the source.

Experiments:
[1] = tested on: Pseudomonas aeruginosa (PA-14); experiment: Toxicity screening of lubricating fluids by CFU quantification; conditions: 1% versus 0.01% of product in tryptone broth, 37° C. overnight, orbital shaker
Protocol: (§1) The toxicity screening assay was based on adding 1% and 0.01% of each commercial product to 10 mL aliquots of tryptone broth, which were inoculated with 1% initial seeding concentration of Pseudomonas aeruginosa (PA-14) preculture and incubated at 37° C. overnight in an orbital shaker. The shaken culture was serially diluted, plated, and incubated for colony forming unit (CFU) quantification.

[2] = Contact angles of various liquids on flat solids; format: physicochemical; set-up: unit not given here
Protocol: The behavior of liquids on surfaces is described by an equilibrium contact angle. An equilibrium contact angle, θ, is the angle at which a liquid/vapor interface meets a solid surface, which is determined by the interactions across the three interfaces, e.g., solid/liquid/vapor. […] The upper limit is known as the apparent advancing contact angle (θA), whereas the lower limit is referred as the apparent receding contact angle (θR). The difference between these values is known as contact angle hysteresis (i.e., Δθ=θA−θR, where θA≥θ≥θR), which characterizes the liquid repellency of a surface. Conventionally, equilibrium contact angle can be roughly estimated by the average of the advancing and receding angles (i.e., θ=(θA+θR)/2), or by a static contact angle, θstatic (i.e., θ=θstatic).
In practice, contact angle measurement can be performed by a number of different well-established techniques, such as the sessile drop method and the Wilhelmy method. In particular, the sessile drop method is among the most popular technique for contact angle measurement. In this technique, a liquid droplet is deposited on a targeted solid surface, where the liquid profile is captured by an optical system of a goniometer and geometrically fitted to obtain the contact angle. The contact angle measured from a static liquid droplet deposited on the surface is known as the static contact angle, θstatic. Using the same system, advancing contact angle, θA, can be measured while the volume of the drop is increasing until the wetting line starts to advance. Receding contact angle, θR, can be measured by decreasing the volume of the drop and determining the contact angle just before the wetting line recedes. Alternatively, the advancing and the receding angles of the liquid drop can also be determined by gradually tilting the solid surface until the liquid drop starts to move.

[3] = tested on: P. aeruginosa; conditions: 1% and 0.1% concentrations; 3, 6, 9, and 30 hours; 550 nm
[4] = Leaching of infiltrated oil in a microfluidic system under water flow; format: physicochemical
Protocol: Experiments were conducted to determine whether fluid from SLIPS leach into the surrounding biological fluid. A nanostructured post array surface (2 μm tall posts, 300 nm diameter, 0.9 μm spacing) with infiltrated perfluorinated oil (Fluorinert FC-70) was integrated into a microfluidic system. Deionized water flowed into the channel at a rate of 12 mL/min (i.e., 720 mL/hr) for 5 minutes. […] The slipperiness of the surface was examined by putting a droplet of decane on the surface. If decane applied to the surface maintains its mobility on the surface, then the lubricants remain attached on the structured surface. However, if decane remains pinned on the surface, the lubricant layer has not been maintained. Leaching can also be monitored by extracting fluid that has passed over SLIPS into a fluorinated solvent followed by followed by chromatography and mass spectrometry and 19F-NMR.
Defining maximum leaching of the infiltrated fluid as the ratio between the total amounts of the perfluorinated oil infiltrated the surface and the volume of water processed in the microfluidic system, the maximum leaching was <0.2%. Because perfluorocarbons are already approved by the Food and Drug Administration as blood substitutes, leaching of this amount of oil is expected to be harmless. […]

[5] = Surface tension of polar and non-polar liquids; format: physicochemical
Description: Fluid-fluid interfacial tension can be measured by many well-established techniques, such as the Wilhelmy plate method, the Du Noüy ring method, and the pendant drop method (e.g., see Drelich et al., in Encyclopedia of Surface and Colloid Science, pp. 3152-3166, Marcel Dekker Inc, 2002, the contents of which is incorporated by reference herein in its entirety). Among all of the techniques, the pendant drop method is among the most popular and versatile technique, which can be easily extended to a two-liquid system. The pendant drop method measures the shape of a fluid-fluid interface and quantifies the shape distortion due to the competition between the fluid-fluid interfacial tension and gravity. In practice, a drop of denser fluid (e.g., Object A) is suspended by a syringe needle in medium X (i.e., air/water/the lubricating fluid). Owing to the influence of gravity, the denser liquid droplet will be deformed as the liquid volume increases. The shape profile of the liquid droplet is captured by an optical system and subsequently analyzed by a computer software when the liquid volume is increased to the maximum possible size (i.e., before the liquid drop is detached from the syringe needle). The interfacial tension of the fluid-fluid interface, γ, can then be deduced from the formula, γ=ΔρgD^2/H, where Δρ is the density difference between the two immiscible fluids, g is gravity, D is equatorial diameter of the liquid droplet, and H is drop shape dependent parameters which is a function of the shape profile of the droplet.

[6] = tested on: Pseudomonas aeruginosa (PA-14)
Protocol: as §1

[7] = flat solid S. (silanized epoxy)

SMILES	toxicity screening, CFU [1]	Measured contact angle θadv ([2]; flat solid Epoxy)	Measured contact angle θrec ([2]; flat solid Epoxy)	Measured contact angle θstatic ([2]; flat solid Epoxy)	Measured contact angle θadv [2, 7]	Measured contact angle θrec [2, 7]	Measured contact angle θstatic [2, 7]	bacterial growth (optical densities) compared to control culture [3]	retention of infiltrated oil on nanostructured surface ([4]; deionized water 12 mL/min for 5 minutes, nanostructured post array)	maximum leaching ([4]; ratio of total infiltrated oil to volume of water processed) [%]	Surface Tension [5] [mN/m]	toxicity screening, CFU [6]
FC(F)(F)C(F)(F)C(F)(F)C(F)(F)C(F)(F)N(C(F)(F)C(F)(F)C(F)(F)C(F)(F)C(F)(F)F)C(F)(F)C(F)(F)C(F)(F)C(F)(F)C(F)(F)F [FC-70, perfluoro-tripentylamine]	Significantly reduced CFU	35.1 ± 0.6	26.7 ± 1.4	33.5 ± 1.1	23.7 ± 4.1	0.0 ± 0.0	14.1 ± 0.8	statistically indistinguishable bacterial growth	remained intact	< 0.2	17.1 ± 0.3	
FC1(F)C(F)(F)C(F)(F)C2(F)C(F)(F)C(F)(F)C(F)(F)C(F)(F)C2(F)C1(F)F (centres unmarked) [Perfluorodecalin]								statistically indistinguishable bacterial growth				Significantly reduced CFU
O=CCCCC=O [glutaraldehyde, reference compound]								massive toxicity				
